Data reported in ChEMBL document CHEMBL3244225, “Synthesis and biological activity of some vinyl-substituted 2-nitroimidazoles” (J Med Chem, 1977).
≈ marks a conversion by molar mass, not a printed value.

Assays:
[1] = system: Staphylococcus aureus; assay: Antimicrobial activity against Staphylococcus aureus Tour by tube dilution method; type: functional
[2] = system: Streptococcus pyogenes; assay: Antimicrobial activity against Streptococcus haemolyticus C 203 by tube dilution method; type: functional
[3] = system: Streptococcus pneumoniae; assay: Antimicrobial activity against Diplococcus pneumoniae UC41 by tube dilution method; type: functional
[4] = system: Clostridium perfringens; assay: Antimicrobial activity against Clostridium perfringens ISS 30543 by tube dilution method; type: functional
[5] = system: Proteus vulgaris; assay: Antimicrobial activity against Proteus vulgaris X19 H ATCC 881 by tube dilution method; type: functional
[6] = system: Escherichia coli; assay: Antimicrobial activity against Escherichia coli SKF 12140 by tube dilution method; type: functional
[7] = system: Shigella sonnei; assay: Antimicrobial activity against Shigella sonnei ATCC 9290 by tube dilution method; type: functional
[8] = system: Salmonella typhimurium; assay: Antimicrobial activity against Salmonella typhimurium Kh by tube dilution method; type: functional, Salmonella enterica subsp. enterica serovar Typhimurium; settings: Salmonella enterica
[9] = system: Klebsiella pneumoniae; assay: Antimicrobial activity against Klebsiella pneumoniae I.S.M. by tube dilution method; type: functional
[10] = system: Pseudomonas aeruginosa; assay: Antimicrobial activity against Pseudomonas aeruginosa ATCC 10145 by tube dilution method; type: functional
[11] = system: Candida albicans; assay: Antimicrobial activity against Candida albicans SKF 2270 by tube dilution method; type: functional
[12] = system: Trichophyton mentagrophytes; assay: Antimicrobial activity against Trichophyton mentagrophytes SKF 17410 by tube dilution method; type: functional
[13] = system: Mycobacterium tuberculosis; assay: Antimicrobial activity against Mycobacterium tuberculosis ATCC 9360 by tube dilution method; type: functional
[14] = system: Mycoplasmoides gallisepticum; assay: Antimicrobial activity against Mycoplasma gallisepticum H21 C.Z.B. by tube dilution method; type: functional
[15] = system: Trichomonas vaginalis; assay: Trichomonastatic activity against Trichomonas vaginalis by tube dilution method; type: functional
[16] = system: Trichomonas vaginalis; assay: Trichomonacidal activity against Trichomonas vaginalis by tube dilution method; type: functional
[17] = system: Trichomonas vaginalis; assay: Ratio of metronidazole ED50 to compound ED50 for Trichomonas vaginalis infected in sc dosed mouse; type: functional
[18] = Toxicity in po dosed mouse infected with Trichomonas vaginalis; type: organism-based; settings: in vivo

Compound | MIC [1] | MIC [2] | MIC [3] | MIC [4] | MIC [5] | MIC [6] | MIC [7] | MIC [8] | MIC [9] | MIC [10] | MIC [11] | MIC [12] | MIC [13] | MIC [14] | MIC [15] | MIC [16] | Ratio ED50 [17] | LD50 [18]
CCCC/C(=C\c1cnc([N+](=O)[O-])n1C)[N+](=O)[O-] | 2 µg/mL (≈ 7.87 µM) | 5 µg/mL (≈ 19.7 µM) | 2 µg/mL (≈ 7.87 µM) | 5 µg/mL (≈ 19.7 µM) | 50 µg/mL (≈ 197 µM) | 10 µg/mL (≈ 39.3 µM) | 50 µg/mL (≈ 197 µM) | 50 µg/mL (≈ 197 µM) | 100 µg/mL (≈ 393 µM) | 100 µg/mL (≈ 393 µM) | 20 µg/mL (≈ 78.7 µM) | 1 µg/mL (≈ 3.93 µM) | 2 µg/mL (≈ 7.87 µM) | 5 µg/mL (≈ 19.7 µM) | 10 µg/mL (≈ 39.3 µM) | 50 µg/mL (≈ 197 µM) | >2.9 | 500 mg/kg
Cc1ccc(S(=O)(=O)OCCn2c(C)cnc2[N+](=O)[O-])cc1 | > 100 µg/mL | > 100 µg/mL | > 100 µg/mL | 50 µg/mL (≈ 154 µM) | > 100 µg/mL | > 100 µg/mL | > 100 µg/mL | > 100 µg/mL | > 100 µg/mL | > 100 µg/mL | > 100 µg/mL | > 100 µg/mL | 100 µg/mL (≈ 307 µM) | > 100 µg/mL | 50 µg/mL (≈ 154 µM) | 100 µg/mL (≈ 307 µM) | >7 | > 1000 mg/kg
CC(/C=C/c1cnc([N+](=O)[O-])n1C)=N\N(C)C | 100 µg/mL (≈ 421 µM) | > 100 µg/mL | > 100 µg/mL | 10 µg/mL (≈ 42.1 µM) | > 100 µg/mL | 50 µg/mL (≈ 211 µM) | > 100 µg/mL | > 100 µg/mL | > 100 µg/mL | > 100 µg/mL | > 100 µg/mL | > 100 µg/mL | 20 µg/mL (≈ 84.3 µM) | > 100 µg/mL | 20 µg/mL (≈ 84.3 µM) | 50 µg/mL (≈ 211 µM) | – | –
Br.CC(/C=C/c1cnc([N+](=O)[O-])n1C)=N\NC1=NCCN1 | 50 µg/mL | 20 µg/mL | 20 µg/mL | 100 µg/mL | > 100 µg/mL | 100 µg/mL | > 100 µg/mL | > 100 µg/mL | > 100 µg/mL | > 100 µg/mL | > 100 µg/mL | > 100 µg/mL | > 100 µg/mL | 100 µg/mL | 20 µg/mL | 100 µg/mL | – | –
Cn1c(/C=[N+](/C)[O-])cnc1[N+](=O)[O-] | 50 µg/mL (≈ 272 µM) | 50 µg/mL (≈ 272 µM) | 50 µg/mL (≈ 272 µM) | 10 µg/mL (≈ 54.3 µM) | 20 µg/mL (≈ 109 µM) | 10 µg/mL (≈ 54.3 µM) | 20 µg/mL (≈ 109 µM) | 20 µg/mL (≈ 109 µM) | 50 µg/mL (≈ 272 µM) | 100 µg/mL (≈ 543 µM) | > 100 µg/mL | > 100 µg/mL | 50 µg/mL (≈ 272 µM) | 20 µg/mL (≈ 109 µM) | 100 µg/mL (≈ 543 µM) | > 100 µg/mL | – | –
CC(/C=C/c1cnc([N+](=O)[O-])n1C)=N\N1CCCC(O)C1 (stereo not given) | 20 µg/mL (≈ 68.2 µM) | > 100 µg/mL | 100 µg/mL (≈ 341 µM) | 20 µg/mL (≈ 68.2 µM) | > 100 µg/mL | 100 µg/mL (≈ 341 µM) | > 100 µg/mL | > 100 µg/mL | > 100 µg/mL | > 100 µg/mL | > 100 µg/mL | 100 µg/mL (≈ 341 µM) | 50 µg/mL (≈ 170 µM) | > 100 µg/mL | 20 µg/mL (≈ 68.2 µM) | 50 µg/mL (≈ 170 µM) | – | –
CC(/C=C/c1cnc([N+](=O)[O-])n1C)=N\NC(N)=S | 10 µg/mL (≈ 37.3 µM) | 20 µg/mL (≈ 74.5 µM) | > 50 µg/mL | 5 µg/mL (≈ 18.6 µM) | > 50 µg/mL | > 50 µg/mL | > 50 µg/mL | > 50 µg/mL | > 50 µg/mL | > 50 µg/mL | > 50 µg/mL | > 50 µg/mL | 10 µg/mL (≈ 37.3 µM) | > 50 µg/mL | 50 µg/mL (≈ 186 µM) | 100 µg/mL (≈ 373 µM) | – | –
Cc1cnc(/N=C/C=C/c2cnc([N+](=O)[O-])n2C)n1C | > 20 µg/mL | > 20 µg/mL | > 20 µg/mL | 10 µg/mL (≈ 36.5 µM) | > 20 µg/mL | > 20 µg/mL | > 20 µg/mL | > 20 µg/mL | > 20 µg/mL | > 20 µg/mL | > 20 µg/mL | > 20 µg/mL | > 20 µg/mL | > 20 µg/mL | 50 µg/mL (≈ 182 µM) | 100 µg/mL (≈ 365 µM) | – | –
CC(/C=C/c1cnc([N+](=O)[O-])n1C)=N\N1CCN(CCO)CC1 | 50 µg/mL (≈ 155 µM) | 100 µg/mL (≈ 310 µM) | 100 µg/mL (≈ 310 µM) | 5 µg/mL (≈ 15.5 µM) | > 100 µg/mL | 100 µg/mL (≈ 310 µM) | > 100 µg/mL | > 100 µg/mL | > 100 µg/mL | > 100 µg/mL | > 100 µg/mL | > 100 µg/mL | 50 µg/mL (≈ 155 µM) | > 100 µg/mL | 20 µg/mL (≈ 62 µM) | 50 µg/mL (≈ 155 µM) | – | –
CCCCC(C(O)c1cnc([N+](=O)[O-])n1C)[N+](=O)[O-] (stereo not given) | 50 µg/mL (≈ 184 µM) | > 100 µg/mL | 100 µg/mL (≈ 367 µM) | 20 µg/mL (≈ 73.5 µM) | 100 µg/mL (≈ 367 µM) | 50 µg/mL (≈ 184 µM) | 50 µg/mL (≈ 184 µM) | 50 µg/mL (≈ 184 µM) | 100 µg/mL (≈ 367 µM) | 20 µg/mL (≈ 73.5 µM) | 50 µg/mL (≈ 184 µM) | 50 µg/mL (≈ 184 µM) | 50 µg/mL (≈ 184 µM) | 50 µg/mL (≈ 184 µM) | > 100 µg/mL | – | – | –
CCOC(=O)/C=C/c1cnc([N+](=O)[O-])n1C | > 100 µg/mL | 100 µg/mL (≈ 444 µM) | 100 µg/mL (≈ 444 µM) | 50 µg/mL (≈ 222 µM) | > 100 µg/mL | 50 µg/mL (≈ 222 µM) | > 100 µg/mL | > 100 µg/mL | > 100 µg/mL | > 100 µg/mL | > 100 µg/mL | 100 µg/mL (≈ 444 µM) | 50 µg/mL (≈ 222 µM) | 100 µg/mL (≈ 444 µM) | 20 µg/mL (≈ 88.8 µM) | 100 µg/mL (≈ 444 µM) | – | –
Cn1c(C=O)cnc1[N+](=O)[O-] | 50 µg/mL (≈ 322 µM) | 50 µg/mL (≈ 322 µM) | 20 µg/mL (≈ 129 µM) | 10 µg/mL (≈ 64.5 µM) | 50 µg/mL (≈ 322 µM) | 10 µg/mL (≈ 64.5 µM) | 20 µg/mL (≈ 129 µM) | 2 µg/mL (≈ 12.9 µM) | 10 µg/mL (≈ 64.5 µM) | 10 µg/mL (≈ 64.5 µM) | 50 µg/mL (≈ 322 µM) | 10 µg/mL (≈ 64.5 µM) | 10 µg/mL (≈ 64.5 µM) | – | 100 µg/mL (≈ 645 µM) | > 100 µg/mL | – | –
COC(=O)c1cnc([N+](=O)[O-])n1C | 50 µg/mL (≈ 270 µM) | > 100 µg/mL | 50 µg/mL (≈ 270 µM) | 5 µg/mL (≈ 27 µM) | > 100 µg/mL | 20 µg/mL (≈ 108 µM) | 100 µg/mL (≈ 540 µM) | 100 µg/mL (≈ 540 µM) | > 100 µg/mL | > 100 µg/mL | > 100 µg/mL | > 100 µg/mL | > 100 µg/mL | > 100 µg/mL | > 50 µg/mL | – | – | –
Cc1cc(-c2cnc([N+](=O)[O-])n2C)n(CCO)n1 | 20 µg/mL (≈ 79.6 µM) | 50 µg/mL (≈ 199 µM) | 50 µg/mL (≈ 199 µM) | 100 µg/mL (≈ 398 µM) | > 100 µg/mL | 50 µg/mL (≈ 199 µM) | > 100 µg/mL | > 100 µg/mL | > 100 µg/mL | > 100 µg/mL | > 100 µg/mL | > 100 µg/mL | > 100 µg/mL | > 100 µg/mL | 10 µg/mL (≈ 39.8 µM) | 50 µg/mL (≈ 199 µM) | – | –
O=C1CN(/N=C/c2ccc([N+](=O)[O-])o2)C(=O)N1 [NITROFURANTOIN] | 10 µg/mL (≈ 42 µM) | – | 1 µg/mL (≈ 4.2 µM) | – | 100 µg/mL (≈ 420 µM) | 5 µg/mL (≈ 21 µM) | 10 µg/mL (≈ 42 µM) | 20 µg/mL (≈ 84 µM) | 50 µg/mL (≈ 210 µM) | > 100 µg/mL | – | – | 50 µg/mL (≈ 210 µM) | – | – | – | – | –
CC(=O)c1cnc([N+](=O)[O-])n1C | 50 µg/mL (≈ 296 µM) | 100 µg/mL (≈ 591 µM) | 20 µg/mL (≈ 118 µM) | 20 µg/mL (≈ 118 µM) | 100 µg/mL (≈ 591 µM) | 10 µg/mL (≈ 59.1 µM) | 50 µg/mL (≈ 296 µM) | 100 µg/mL (≈ 591 µM) | 100 µg/mL (≈ 591 µM) | > 100 µg/mL | > 100 µg/mL | 50 µg/mL (≈ 296 µM) | 50 µg/mL (≈ 296 µM) | 100 µg/mL (≈ 591 µM) | 50 µg/mL (≈ 296 µM) | > 100 µg/mL | – | –
